For assay [1], the target named is T1, human toll like receptor 7 (hTLR7) (Homo sapiens, UniProt Q9NYK1).
T1 construct: host or cells: HEK293 (HEK-Blue hTLR7)
T1 sequence (Q9NYK1 27-1049): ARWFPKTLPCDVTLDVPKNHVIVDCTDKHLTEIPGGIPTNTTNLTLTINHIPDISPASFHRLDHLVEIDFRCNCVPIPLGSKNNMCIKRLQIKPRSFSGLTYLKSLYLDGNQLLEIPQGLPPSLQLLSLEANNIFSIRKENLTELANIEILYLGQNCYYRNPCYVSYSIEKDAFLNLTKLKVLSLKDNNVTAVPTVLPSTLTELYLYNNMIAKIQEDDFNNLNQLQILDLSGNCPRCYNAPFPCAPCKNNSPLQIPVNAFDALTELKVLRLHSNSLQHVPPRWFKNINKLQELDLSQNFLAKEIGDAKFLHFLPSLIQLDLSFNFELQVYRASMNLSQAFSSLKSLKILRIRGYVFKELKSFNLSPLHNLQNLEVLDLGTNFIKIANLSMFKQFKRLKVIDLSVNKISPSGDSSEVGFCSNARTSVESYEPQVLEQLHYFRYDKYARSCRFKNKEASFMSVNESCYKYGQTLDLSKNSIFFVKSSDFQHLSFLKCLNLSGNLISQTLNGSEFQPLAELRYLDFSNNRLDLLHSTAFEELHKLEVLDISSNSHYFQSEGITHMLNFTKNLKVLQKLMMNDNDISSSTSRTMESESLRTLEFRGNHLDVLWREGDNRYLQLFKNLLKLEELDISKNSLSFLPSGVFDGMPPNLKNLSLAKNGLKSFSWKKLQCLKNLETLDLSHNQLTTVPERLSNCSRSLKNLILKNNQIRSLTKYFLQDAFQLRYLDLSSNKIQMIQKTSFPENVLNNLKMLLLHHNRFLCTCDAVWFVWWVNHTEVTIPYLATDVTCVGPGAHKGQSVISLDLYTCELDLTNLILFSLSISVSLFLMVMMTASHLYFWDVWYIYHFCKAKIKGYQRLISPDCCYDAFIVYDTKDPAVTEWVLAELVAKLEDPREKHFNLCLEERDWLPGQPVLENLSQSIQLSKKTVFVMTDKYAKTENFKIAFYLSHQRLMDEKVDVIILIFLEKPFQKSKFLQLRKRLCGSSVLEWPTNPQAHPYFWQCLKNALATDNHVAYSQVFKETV
Description: hTLR7 cell functional assay (HEK-Blue hTLR7 SEAP reporter). The class given is cell-based. Conditions: HEK293 cells stably overexpressing hTLR7, SEAP reporter; geometric mean when tested more than once. Here is the method: (§1) The Examples described were tested for biological activity in functional cellular assays using HEK293 cells stably overexpressing human TLR7 or TLR8. The assays tested for the ability of each Example to stimulate secretion of interferon alpha (IFNα) in human primary blood mono nuclear cells (PBMC).
(§2) To determine the ability of each Example to activate the human toll like receptor 7 (hTLR7) or human toll like receptor 8 (hTLR8), cell-based reporter systems were utilized. HEK293 cells stably overexpressing either hTLR7 or hTLR8 along with a reporter gene containing an optimized secreted embryonic alkaline phosphatase gene (SEAP), under the control of the IFN-b minimal promoter fused to five NF-κB and AP-1-binding sites, were obtained from Invivogen (HEK-Blue™ hTLR7, cat #Hkb-ht1r7; HEK-Blue™ hTLR8, cat #Hkb-ht1r8). Stimulation of hTLR7 or hTLR8 in these cells activates NF-κB and AP-1 and induces the production of SEAP which can be quantified using an alkaline phosphatase detection reagent.
(§3) Cells were maintained in Dulbecco's Modified Eagle Media (DMEM) (containing Fetal Bovine Serum (FBS) heat inactivated (10%), Glutamax (2 mM), Penicillin/Streptomycin, Blasticidin (10 μg/ml), Zeocin (100 μg/ml) and Normocin (100 μg/ml)). On day one of the assay, Examples were prepared using 11-point half-log serial dilutions from a 10mM DMSO stock solution and 50 nl was spotted into 384-well Viewplates (PerkinElmer, cat #6007480). Positive control TLR7/8 agonist and negative control (DMSO, no Example) were also spotted within the assay plate and were used to determine percent effect during the analysis process. After resuspension in DMEM assay media containing FBS heat inactivated (10%), Glutamax (2 mM) and Penicillin/Streptomycin, 10,000 cells/20 μl/well were added to previously prepared plates. Plates were incubated overnight (16-20 hrs) at 37° C. in a 5% CO2 environment. Prewetted Microclime lids (Labcyte, LLS-0310) were used to prevent evaporation. On day two of the assay, QUANTI-Blue™ detection reagent was prepared by reconstituting QUANTI-Blue™ powder (InvivoGen, Rep-qb1) with 100 ml of sterile water and allowed to equilibrate to 37° C. for 15 minutes. 20 μl of QUANTI-Blue™ detection reagent was added to each well and plates were incubated at room temperature for 180 min. At the end of the incubation, plates were read on an Envision (Perkin Elmer) plate reader capturing absorbance at 650 nm.
(§4) Using Positive (TLR7/8 agonist) and Negative (DMSO) controls, the percent (%) effect was calculated for each Example using the following equation: effect=100−[100*{(Example−Positive Control)/(Negative Control−Positive Control)}]
(§5) The % effect at each concentration of each Example was calculated utilizing the ABase software suite (IBDS) and was relative to the amount of SEAP produced in the positive and negative control wells contained within each assay plate. The concentrations and % effect values for each Example were fit using a 4-parameter logistic model in ABase and the concentration of each Example that produced 50% response (EC50) was calculated.

The target in assay [2] is T2, human toll like receptor 8 (hTLR8) (Homo sapiens, UniProt Q9NR97).
T2 construct: host or cells: HEK293 (HEK-Blue hTLR8)
T2 sequence (Q9NR97 27-1041): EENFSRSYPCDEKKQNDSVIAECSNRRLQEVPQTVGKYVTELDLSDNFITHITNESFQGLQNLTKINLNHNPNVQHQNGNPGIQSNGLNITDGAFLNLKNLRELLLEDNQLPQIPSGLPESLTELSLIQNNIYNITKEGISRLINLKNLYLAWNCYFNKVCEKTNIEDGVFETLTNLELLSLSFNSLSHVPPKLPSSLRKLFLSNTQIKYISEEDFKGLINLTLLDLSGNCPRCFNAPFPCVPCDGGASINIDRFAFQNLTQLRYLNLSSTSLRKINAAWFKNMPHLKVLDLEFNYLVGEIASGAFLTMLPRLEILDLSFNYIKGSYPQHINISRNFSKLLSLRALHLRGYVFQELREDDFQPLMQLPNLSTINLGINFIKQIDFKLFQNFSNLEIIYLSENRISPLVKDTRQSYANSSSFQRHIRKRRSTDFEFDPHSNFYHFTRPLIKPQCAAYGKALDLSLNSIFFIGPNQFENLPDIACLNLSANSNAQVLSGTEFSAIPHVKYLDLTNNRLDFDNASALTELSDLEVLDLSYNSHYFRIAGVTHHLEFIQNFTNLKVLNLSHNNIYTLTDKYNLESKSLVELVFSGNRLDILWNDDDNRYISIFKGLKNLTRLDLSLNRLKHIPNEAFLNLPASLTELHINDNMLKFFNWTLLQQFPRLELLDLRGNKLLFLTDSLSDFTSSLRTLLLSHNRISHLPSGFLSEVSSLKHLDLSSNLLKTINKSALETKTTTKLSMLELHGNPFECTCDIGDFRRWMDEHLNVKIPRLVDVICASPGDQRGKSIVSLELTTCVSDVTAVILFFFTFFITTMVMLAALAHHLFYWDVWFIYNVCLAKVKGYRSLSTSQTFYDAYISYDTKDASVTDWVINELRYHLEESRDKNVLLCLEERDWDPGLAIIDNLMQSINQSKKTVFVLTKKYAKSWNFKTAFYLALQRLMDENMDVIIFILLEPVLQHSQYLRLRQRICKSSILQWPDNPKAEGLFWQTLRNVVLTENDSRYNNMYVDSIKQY
As to the kind of experiment: hTLR8 cell functional assay (HEK-Blue hTLR8 SEAP reporter). The conditions noted are these: HEK293 cells stably overexpressing hTLR8, SEAP reporter; geometric mean when tested more than once. The class given is cell-based. The method, then:
as §1, §2, §3, §4, §5

Assay [3] relates to superficial basal cell carcinomas. Conditions: marketed 5% cream (Aldara); cited from earlier work.

These results are taken from patent US11976064B2, “Toll-like receptor agonists” (Pfizer Inc., priority 2019, dated 2024).

The structures appear in SMILES notation.

With `CCOCc1nc2c(N)nc3c(c2n1CC(C)(CO)CO)CCC3` [Example 4, 2-((4-amino-2-(ethoxymethyl)-7,8-dihydrocyclopenta[b]imidazo[4,5-d]pyridin-1(6H)-yl)methyl)-2-methylpropane-1,3-diol], the EC50 (in general, the concentration that produces a half-maximal response) amounted to 54 nM in assay [1] and 400 nM in assay [2].

Consider `CCOCc1nc2c(N)nc3c(c2n1CC(C)(CO)CO)CCCC3` [Example 5, 2-((4-amino-2-(ethoxymethyl)-6,7,8,9-tetrahydro-1H-imidazo[4,5-c]quinolin-1-yl)methyl)-2-methylpropane-1,3-diol], for which the EC50 in assay [1] was determined as 42 nM; in assay [2], 273 nM.

On to `CCCCc1nc2c(N)nc(C)c(C)c2n1CC(C)(CO)CO` [Example 11, 2-((4-amino-2-butyl-6,7-dimethyl-1H-imidazo[4,5-c]pyridin-1-yl)methyl)-2-methylpropane-1,3-diol], for which the results for the concentration giving a half-maximal response (EC50) in assay [1] and in assay [2] were 13 nM and 160 nM, respectively.

Regarding `CCCCCc1nc2c(N)nc3ccccc3c2n1CC(C)(CO)CO` [Example 12, 2-((4-amino-2-pentyl-1H-imidazo[4,5-c]quinolin-1-yl)methyl)-2-methylpropane-1,3-diol], the EC50 in assay [1] came to 9 nM; in assay [2], 191 nM.

As to `COCCc1nc2c(N)nc3c(c2n1CC(C)(CO)CO)CCC3` [Example 17, 2-((4-amino-2-(2-methoxyethyl)-7,8-dihydrocyclopenta[b]imidazo[4,5-d]pyridin-1(6H)-yl)methyl)-2-methylpropane-1,3-diol], the EC50 in assay [1] was 156 nM; in assay [2] it was 1060 nM.

Regarding `COCCc1nc2c(N)nc3c(c2n1CC(C)(CO)CO)CCCC3` [Example 18, 2-((4-amino-2-(2-methoxyethyl)-6,7,8,9-tetrahydro-1H-imidazo[4,5-c]quinolin-1-yl)methyl)-2-methylpropane-1,3-diol], the EC50 came to 16 nM in assay [1] and 119 nM in assay [2].

With `COCCc1nc2c(N)nc3ccccc3c2n1CC(C)(CO)CO` [Example 19, 2-((4-amino-2-(2-methoxyethyl)-1H-imidazo[4,5-c]quinolin-1-yl)methyl)-2-methylpropane-1,3-diol], the results for the EC50 in assay [1] and in assay [2] were 9 nM and 310 nM, respectively.

For the compound `CC(C)Cn1cnc2c(N)nc3ccccc3c21` [Imiquimod], the “5-year clearance of superficial basal cell carcinomas” value in assay [3] is “approximately 80%”.
